According to PubChem BioAssay (NCI):
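Compound exposure: 48 hours, 5 concentrations, 96-well plates. At the GI50, growth is halved. The concentration for full growth arrest is given as TGI.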

Columns and labels:
Test in all cases: NCI-60 cell line screen, 48 h
CCRF-CEM leukemia = system: CCRF-CEM leukemia
EKVX NSCLC = system: EKVX NSCLC
HT29 colon = system: HT29 colon
IGROV1 ovarian = system: IGROV1 ovarian
LOX IMVI melanoma = system: LOX IMVI melanoma
NCI-H226 lung = system: NCI-H226 lung
NCI-H460 lung = system: NCI-H460 lung
SNB-75 CNS = system: SNB-75 CNS
SW-620 colon = system: SW-620 colon
UACC-62 melanoma = system: UACC-62 melanoma

SMILES	GI50 (CCRF-CEM leukemia) [µM]	TGI (CCRF-CEM leukemia) [µM]	GI50 (EKVX NSCLC) [µM]	TGI (EKVX NSCLC) [µM]	GI50 (HT29 colon) [µM]	TGI (HT29 colon) [µM]	GI50 (IGROV1 ovarian) [µM]	TGI (IGROV1 ovarian) [µM]	GI50 (LOX IMVI melanoma) [µM]	TGI (LOX IMVI melanoma) [µM]	GI50 (NCI-H226 lung) [µM]	TGI (NCI-H226 lung) [µM]	GI50 (NCI-H460 lung) [µM]	TGI (NCI-H460 lung) [µM]	GI50 (SNB-75 CNS) [µM]	TGI (SNB-75 CNS) [µM]	GI50 (SW-620 colon) [µM]	TGI (SW-620 colon) [µM]	GI50 (UACC-62 melanoma) [µM]	TGI (UACC-62 melanoma) [µM]
CC(=O)OC1CC(O)C23COC(O)C1(C)C2CC(O)C1(C)C3C(=O)C(O)C2(C)C(c3ccoc3)CC3OC321 (stereo unspecified)	< 0.0162	> 100	1.94	> 100	< 0.01	> 33.3	0.377	> 100	< 0.01	12.5	< 0.0188	18.4	< 0.0486	> 100	< 0.0397	> 100	0.0323	> 100	< 0.01	< 0.0129
CCN(CC)c1ccc(C(=N)c2ccc(N(CC)CC)cc2)cc1	0.741	9.3	0.868	11.8	0.319	2.83	0.565	4.43	0.598	2.02	0.669	2.57	0.411	1.56	0.849	6.89	0.346	1.5	0.621	2.24
CC[O-].CC[O-].O=C1c2ccccc2C(=O)c2c(O)ccc([O-])c21.O=C1c2ccccc2C(=O)c2c(O)ccc([O-])c21.[Ti+4]		> 100		> 100		> 100		> 100		> 100	> 100	> 100		> 100		> 100		> 100		> 100
CCC#CC[C@H]1C/C=C2/C(=O)C=C[C@@H]2C/C=C\CCCC(=O)O1	0.791	5	1.9	7.42	0.894	2.39	1.47	4.33	0.698	1.5	1.27	5.26	1.14	3.65	4.38	10.8	0.642	4.15	0.559	1.8
COc1c2c(cc3nc4ccccc4nc13)CCC(C(C)(C)O)C2 (stereo unspecified)		> 100		> 100		> 100		> 100		> 100		> 100		> 100		> 100		> 100		> 100
Cc1ccc(C(=NN=C(N)N)c2ccc(C)cc2)cc1	0.559	12.2	0.7	16.6	0.316	1.17	0.644	7.64	0.587	3.38	1.69	10.9	0.359	1.33	0.845	16.7	0.379	1.66	0.902	6.04
O=C(O)CN(c1ccccc1)S(=O)(=O)c1ccccc1[N+](=O)[O-]		> 100		> 100		> 100		> 100		> 100		> 100		> 100		> 100		> 100		> 100
N#Cc1nc(C2OC(COC(=O)c3ccccc3)C(OC(=O)c3ccccc3)C2OC(=O)c2ccccc2)oc1N (stereo unspecified)		34.6		> 100		> 100		> 100		> 100		> 100		> 100		> 100		> 100		> 100
CC(C)c1ccc(C(=O)Nc2sc3c(c2C(N)=O)CCC(=O)C3)cc1	0.215	4.27	1.78	5.34	0.484	5.34	0.491	2.14	0.373	1.71	2.42	7.23	0.849	3.73	0.795	2.65	0.256	1.6	0.46	1.91
COc1ccc(C(C)c2cc3c(cc2OC)OCO3)cc1 (stereo unspecified)		> 66.2		> 100		0.43		7.47		27.3		20.6		4.69		> 100		> 100		> 69.2
Cc1cn2c(/C=C3/C(=O)N(C)c4ccccc43)c(C)nc2s1	14.5	> 100	15.8	> 100	3.58	> 100	6.98	70.3	11.6	> 100	40.5	> 100	4.06	29.6	4.69	23.4	4.3	> 100	12.2	97.9
Clc1nc(Cl)c2ncn(Cc3cccc(COc4cccc(OCc5cccc(Cn6cnc7c(Cl)nc(Cl)nc76)c5)c4)c3)c2n1	5.24	> 100	> 100	> 100	> 100	> 100	60.8	> 100	23.9	> 100	4.97	27.5	> 100	> 100	> 100	> 100	> 100	> 100	60	> 100
CCN(CC)CCCC(C)Nc1c(C)cnc2cc(Cl)c(C)cc12 (stereo unspecified)	8.66	34.8	15	38.7	2.72	> 24.8	25.9	74.7	2.17	10.7	4.57	15	14.1	32.3	17.8	36	10.6	25.7	3.44	11.1
CCOC(=O)Sc1ncnc2nc[nH]c12	0.629	13.4	38.5	> 100	3.07	> 100	6.69	> 100	0.348	> 100	4.46	> 100	5.75	> 100	0.747	> 100	3.89	> 100	1.37	> 100
